From patent US20240382465A1, “AROMATIC ACETYLENE DERIVATIVE, AND PREPARATION METHOD THEREFOR AND USE THEREOF” (priority 2021, published 2024)
In brackets after ≈: the same amount, converted by molar mass.

Key:
[1] = molecular target: recombinant Pseudomonas aeruginosa LpxC (Pseudomonas aeruginosa (strain ATCC 15692 / DSM 22644 / CIP 104116 / JCM 14847 / LMG 12228 / 1C / PRS 101 / PAO1), UniProt P47205); assay: Inhibition of LpxC enzymatic activity (fluorescamine assay); assay type: biochemical; conditions: recombinant P. aeruginosa LpxC 5 nM, substrate 10 μM, 25° C., 120 minutes; read-out: IC50
Method: The degree of inhibition of the enzymatic activity of recombinant Pseudomonas aeruginosa LpxC by the compounds of the present disclosure under in vitro conditions was determined using the following method.
The experimental procedure is briefly described as follows: The test compound was first dissolved in DMSO to prepare a 10 mM stock solution. The reaction was carried out in a 96-well microplate. First, 20 μL of recombinant Pseudomonas aeruginosa LpxC (purchased from Signalway Antibody, product number AP74647-2) was added to each well, with a final concentration of 5 nM. 5 μL of the compound to be tested was then added, and the compound was diluted 4 times to 8 concentration points with a concentration range of 0.61-10,000 nM. 5 μL of LpxC substrate UDP-3-O—(R-3-hydroxydecanoyl)-GlcNAc (purchased from Biosynth Carbosynth, product number: mu75071) was added, with a final concentration of the substrate of 10 μM. The plate was incubated at 25° C. for 120 minutes. Then 20 μL of 2.0 mg/mL fluorescamine (purchased from sigmaaldrich, product number: F9015, solvent: 1:1 dimethylformamide/acetonitrile) was added to the reaction system, and mixed well for 10 minutes of reaction. Finally, 50 μL of 200 mM sodium phosphate buffer (pH 8.0) was added to terminate the reaction. Reading was carried out using a microplate reader (BMG), and the excitation and emission wavelengths were 390 and 495 nm respectively. By comparing with the fluorescence intensity ratio of the control group ([…]), the percentage inhibition rate of the compound at each concentration was calculated.

[2] = system: E. coli ATCC 25922; assay: Antibacterial activity, MIC by broth microdilution (CLSI); assay type: cell-based; conditions: Escherichia coli, ATCC25922; E. coli ATCC 25922, 35° C., 18 to 24 hours; read-out: MIC(E. coli)
Method: The in vitro minimum inhibitory concentration (MIC) was determined in accordance with the CLSI guidelines, and was measured using the broth microdilution method.
The experimental process is briefly described as follows: The test compound was dissolved in DMSO to prepare a […] stock solution, which was then prepared into 11 twice-diluted 100× high-concentration working solutions (the final concentration of the system was 64 μg/mL-0.06 μg/mL) using DMSO. The strains (K. pneumoniae ATCC13883 and E. coli ATCC 25922) frozen in −80° C. glycerol were inoculated into solid agar medium, placed in an incubator at 35° C. for 18-24 hours of incubation. After the preparation of strains was completed, an appropriate amount of solid plate culture was collected, resuspended in physiological saline, and mixed well. The bacterial suspension was adjusted to a suitable turbidity using a turbidity meter, containing approximately 1×10^8 cfu/mL bacteria. Then the bacterial suspension with the adjusted turbidity was diluted to a bacterial concentration of 5×10^5 cfu/ml using the culture medium for measurement, to complete the preparation of the inoculum solution. 198 μL of the inoculum solution was inoculated into a 96-well plate, and then added with 2 μL of a 100× high-concentration working solution of the compound. Then the 96-well plate was placed at 35° C. for 18 to 24 hours of incubation.

Row | Compound | IC50 [1] | MIC [2]
1 | C[C@H](O)c1nccn1Cc1cc(-c2ccc(C#Cc3ccc(C#N)nc3)cc2)on1 [Example 120, (S)-5-((4-(3-((2-(1-hydroxyethyl)-1H-imidazol-1-yl)methyl)isoxazol-5-yl)phenyl)ethynyl)picolinonitrile] | 77.1 nM | –
2 | C[C@H](O)c1nccn1Cc1cc(-c2ccc(C#Cc3ccc(OCC4CCN(C)CC4)cc3)cc2)on1 [Example 76, (S)-1-(1-((5-(4-((4-((1-methylpiperidin-4-yl)methoxy)phenyl)ethynyl)phenyl)isoxazol-3-yl)methyl)-1H-imidazol-2-yl) ethan-1-ol] | 12.9 nM | 8 µg/mL (≈ 16.1 µM)
3 | CC(=O)c1ccc(C#Cc2ccc(-c3cc(Cn4ccnc4[C@H](C)O)no3)cc2)cn1 [Example 103, (S)-1-(5-((4-(3-((2-(1-hydroxyethyl)-1H-imidazol-1-yl)methyl)isoxazol-5-yl)phenyl)ethynyl)pyridin-2-yl)ethan-1-one] | 46.8 nM | –
4 | C[C@H](O)c1nccn1Cc1cc(-c2ccc(C#Cc3ccc(C(=O)NCC(C)(C)O)cc3)cc2)on1 [Example 72, (S)-N-(2-hydroxy-2-methyl-propyl)-4-((4-(3-((2-(1-hydroxyethyl)-1H-imidazol-1-yl)methyl)isoxazol-5-yl)phenyl)ethynyl) benzamide] | 26.6 nM | 8 µg/mL (≈ 16.5 µM)
5 | C[C@H](O)c1nccn1Cc1cc(-c2ccc(C#Cc3ccc(CN4CCC(O)C(F)(F)C4)cc3)cc2)on1 (stereo partly drawn) [Example 97, 3,3-difluoro-1-(4-((4-(3-((2-((S)-1-hydroxyethyl)-1H-imidazol-1-yl)methyl)isoxazol-5-yl)phenyl)ethynyl)benzyl) piperidin-4-ol] | 31.9 nM | –
6 | C[C@H](O)c1nccn1Cc1cc(-c2ccc(C#Cc3ccc(C(=O)N4CCC(O)CC4)cc3)cc2)on1 [Example 67, (S)-(4-((4-(3-((2-(1-hydroxy-ethyl)-1H-imidazol-1-yl)methyl)isoxazol-5-yl)phenyl)ethynyl)phenyl)(4-hydroxypiperidin-1-yl)methanone] | 10.4 nM | 2 µg/mL (≈ 4.03 µM)
7 | C[C@H](O)c1nccn1Cc1cc(-c2ccc(C#Cc3ccc(CN4CC(CC(N)=O)C4)nc3)cc2)on1 [Example 122, (S)-2-(1-((5-((4-(3-((2-(1-hydroxyethyl)-1H-imidazol-1-yl)methyl)isoxazol-5-yl)phenyl)ethynyl)pyridin-2-yl)methyl)azetidin-3-yl)acetamide] | 6.71 nM | –
8 | C[C@H](O)c1nccn1Cc1cc(-c2ccc(C#Cc3ccc(CNCC(=O)O)nc3)cc2)on1 [Example 116] | 47.9 nM | –
9 | C[C@H](O)c1nccn1Cc1cc(-c2ccc(C#Cc3ccc(CN4CC(C(N)=O)C4)nc3)cc2)on1 [Example 123, (S)-1-((5-((4-(3-((2-(1-hydroxyethyl)-1H-imidazol-1-yl)methyl)isoxazol-5-yl)phenyl)ethynyl)pyridin-2-yl)methyl)azetidin-3-carboxamide] | 8.22 nM | –
10 | C[C@H](O)c1nccn1Cc1cc(-c2ccc(C#Cc3ccccc3C(=O)O)cc2)on1 [Example 106, (S)-2-((4-(3-((2-(1-hydroxyethyl)-1H-imidazol-1-yl)methyl)isoxazol-5-yl)phenyl)ethynyl) benzoic acid] | 68.9 nM | –
11 | C[C@H](O)c1nccn1Cc1cc(-c2ccc(C#Cc3ccc(OCCN4CCOCC4)cc3)cc2)on1 [Example 80, (S)-1-(1-((5-(4-((4-(2-morpho-linoethoxy)phenyl)ethynyl)phenyl)isoxazol-3-yl)methyl)-1H-imidazol-2-yl)ethan-1-ol] | 64.9 nM | –
12 | C[C@H](O)c1nccn1Cc1cc(-c2ccc(C#Cc3ccc(N4CCC(O)CC4)cc3)cc2)on1 [Example 41, (S)-1-(4-((4-(3-((2-(1-hydroxyethyl)-1H-imidazol-1-yl)methyl)isoxazol-5-yl)phenyl)ethynyl)phenyl)piperidin-4-ol] | 26.3 nM | –
13 | C[C@H](O)c1nccn1Cc1cc(-c2ccc(C#Cc3ccc(Cn4ccnc4)cc3)cc2)on1 [Example 98, (S)-1-(1-((5-(4-((4-((1H-imida-zol-1-yl)methyl)phenyl)ethynyl)phenyl)isoxazol-3-yl)methyl)-1H-imidazol-2-yl)ethan-1-ol] | 78.5 nM | –
14 | C[C@H](O)c1nccn1Cc1cc(-c2ccc(C#Cc3ccc(CN4CC(C#N)C4)nc3)cc2)on1 [Example 119, (S)-1-((5-((4-(3-((2-(1-hydroxyethyl)-1H-imidazol-1-yl)methyl)isoxazol-5-yl)phenyl)ethynyl)pyridin-2-yl)methyl)azetidin-3-carbonitrile] | 7.42 nM | –
15 | C[C@H](O)c1nccn1Cc1cc(-c2ccc(C#Cc3ccc(S(N)(=O)=O)cc3)cc2)on1 [Example 83, (S)-4-((4-(3-((2-(1-hydroxy-ethyl)-1H-imidazol-1-yl)methyl)isoxazol-5-yl)phenyl)ethynyl) benzenesulfonamide] | 54.7 nM | –
16 | C[C@H](O)c1nccn1Cc1cc(-c2ccc(C#Cc3ccc(C(C)(C)N4CCOCC4)cc3)cc2)on1 [Example 94, (S)-1-(1-((5-(4-((4-(2-morpho-linopropan-2-yl)phenyl)ethynyl)phenyl)isoxazol-3-yl)methyl)-1H-imidazol-2-yl)ethan-1-ol] | 76.5 nM | –
17 | C[C@H](O)c1nccn1Cc1cc(-c2ccc(C#Cc3ccc(CN4CCOCC4)cc3)cn2)no1 [Example 104, (S)-1-(1-((3-(5-((4-(morpholino-methyl)phenyl)ethynyl)pyridin-2-yl)isoxazol-5-yl)methyl)-1H-imidazol-2-yl)ethan-1-ol] | 58.6 nM | –
18 | C[C@H](O)c1nccn1Cc1cc(-c2ccc(C#Cc3ccc(CN4CC(CO)C4)nc3)cc2)on1 [Example 113, (S)-1-(1-((5-(4-((6-((3-(hydroxymethyl)azetidin-1-yl)methyl)pyridin-3-yl)ethynyl)phenyl)isoxazol-3-yl)methyl)-1H-imidazol-2-yl)ethan-1-ol] | 24.6 nM | –
19 | C[C@H](O)c1nccn1Cc1cc(-c2ccc(C#Cc3ccc(C(=O)NCCO)nc3)cc2)on1 [Example 105, (S)-N-(2-hydroxyethyl)-5-((4-(3-((2-(1-hydroxyethyl)-1H-imidazol-1-yl)methyl)isoxazol-5-yl)phenyl)ethynyl) picolinamide] | 22.6 nM | –
20 | C[C@H](O)c1nccn1Cc1cc(-c2ccc(C#Cc3ccc(CN4CC(C(=O)O)C4)nc3)cc2)on1 [Example 117, (S)-1-((5-((4-(3-((2-(1-hydroxyethyl)-1H-imidazol-1-yl)methyl)isoxazol-5-yl)phenyl)ethynyl)pyridin-2-yl)methyl)azetidin-3-carboxylic acid] | 18.5 nM | –
21 | C[C@H](O)c1nccn1Cc1cc(-c2ccc(C#Cc3ccc(C(=O)N4CC(O)C4)cc3)cc2)on1 [Example 68, (S)-(3-hydroxyazetidin-1-yl)(4-((4-(3-((2-(1-hydroxyethyl)-1 H-imidazol-1-yl)methyl)isoxazol-5-yl)phenyl)ethynyl)phenyl)methanone] | 68.3 nM | –
22 | C[C@H](O)c1nccn1Cc1cc(-c2ccc(C#Cc3ccc(C(=O)NCC(=O)O)cc3)cc2)on1 [Example 74, (S)-(4-((4-(3-((2-(1-hydroxy-ethyl)-1H-imidazol-1-yl)methyl)isoxazol-5-yl)phenyl)ethynyl)benzoyl)glycinate] | 21.2 nM | –
23 | C[C@H](O)c1nccn1Cc1cc(-c2ccc(C#Cc3ccc(OC4CCC(C(=O)O)CC4)cc3)cc2)on1 (stereo partly drawn) [Example 79, (S)-4-(4-((4-(3-((2-(1-hydroxyethyl)-1H-imidazol-1-yl)methyl)isoxazol-5-yl)phenyl)ethynyl)phenoxy)cyclohexane-1-carboxylic acid] | 42.5 nM | –
24 | C[C@H](O)c1nccn1Cc1cc(-c2ccc(C#Cc3ccc(CN4CC(O)C4)nc3)cc2)on1 [Example 121, (S)-1-((5-((4-(3-((2-(1-hydroxyethyl)-1H-imidazol-1-yl)methyl)isoxazol-5-yl)phenyl)ethynyl)pyridin-2-yl)methyl)azetidin-3-ol] | 22.3 nM | –
25 | C[C@H](O)c1nccn1Cc1cc(-c2ccc(C#Cc3ccc(CN4CC(CC#N)C4)nc3)cc2)on1 [Example 118, (S)-2-(1-((5-((4-(3-((2-(1-hydroxyethyl)-1H-imidazol-1-yl)methyl)isoxazol-5-yl)phenyl)ethynyl)pyridin-2-yl)methyl)azetidin-3-yl)acetonitrile] | 16.5 nM | –
